Reference: patent US20080058213A1, “Benzoxazole Compounds” (priority 2004, published 2008)

What was measured:
Format in all cases: in vivo
[1] = system: barnyard grass (Echinochloa crusgalli); assay: Weed control test for paddy field (Test Example 1): barnyard grass; details: paddy pots, treated at 1.0 leaf stage of barnyard grass, examined after 3 weeks
From the text: (§1) Paddy field soil was filled in 1/10,000 are pots, kneaded with adequate amounts of water and chemical fertilizer, seeded with barnyard grass (Echinochloa crusgalli), Monochoria (Monochoria vaginalis), Japanese bulrush (Scirpus juncoides) and flat sedge (Cyperus serotinus), and further transplanted with 2.0 leaf stage of rice plant. The pots were maintained under the water-filled condition to a depth of 3 cm.
(§2) Wettable powders containing the compounds (1) as identified in Table 1, which were formulated following Production Example 2, were diluted with adequate amount of water and applied to the pots dropwise with pippet at a prescribed dose of the active ingredients per are, at 1.0 leaf stage of the barnyard grass.
(§3) After placing the pots in a glasshouse which was controlled at an average temperature of 25° C. for 3 weeks, herbicidal effect was examined.
(§4) Evaluation of the herbicidal effect is shown in the following six grades, by comparing the condition of untreated control and growth inhibition (%): • 0: 0%-less than 20% • 1: 20%-less than 40% • 2: 40%-less than 60% • 3: 60%-less than 80% • 4: 80%-less than 100% • 5: 100%.

[2] = system: Monochoria (Monochoria vaginalis); assay: Weed control test for paddy field (Test Example 1): Monochoria; details: paddy pots, treated at 1.0 leaf stage of barnyard grass, examined after 3 weeks
From the text: as §1, §2, §3, §4

[3] = system: Japanese bulrush (Scirpus juncoides); assay: Weed control test for paddy field (Test Example 1): Japanese bulrush; details: paddy pots, treated at 1.0 leaf stage of barnyard grass, examined after 3 weeks
From the text: as §1, §2, §3, §4

[4] = system: flat sedge (Cyperus serotinus); assay: Weed control test for paddy field (Test Example 1): flat sedge; details: paddy pots, treated at 1.0 leaf stage of barnyard grass, examined after 3 weeks
From the text: as §1, §2, §3, §4

[5] = system: rice plant; assay: Weed control test for paddy field (Test Example 1): phytotoxicity to rice plant
From the text: as §1, §2, §3
(§5) Evaluation of phytotoxicity is shown in the following six grades, as compared with the condition of untreated control: • 0: normal growth • 1: little damaged • 2: low damaged • 3: medium damaged • 4: serious damaged • 5: complete killed.

[6] = system: southern crabgrass (Digitaria ciliaris); assay: Soil treatment test for upland field (Test Example 2): southern crabgrass; details: soil treatment before germination, examined after 3 weeks
From the text: as §4
(§6) Upland field soil was filled in 1/3,000 are pots, seeded with southern crabgrass (Digitaria ciliaris), common lambsquaters (Chenopodium album), slender amaranth (Amaranthus viridis), common purslane (Portulaca oleracea), velvetleaf (Abutilon theophrasti), wheat, corn and soybean. The seeds were covered up with the soil.
(§7) Wettable powders containing the object compounds (1) as identified in Table 1, which were formulated following Preparation Example 2, were diluted with adequate amount of water to secure the prescribed dose of the active ingredient, and uniformly sprayed onto the surface soil layer after the seeding and before germination of the weeds, at an application water of 15 liters per are.
(§8) After placing the test pots in a glasshouse which was kept at an average temperature of 25° C. for 3 weeks, the herbicidal effect was examined.
(§9) Evaluations of the herbicidal effect and phytotoxicity were made in the manner similar to those in the above Test Example 1.

[7] = system: common lambsquaters (Chenopodium album); assay: Soil treatment test for upland field (Test Example 2): common lambsquaters; details: soil treatment before germination, examined after 3 weeks
From the text: as §4, §6, §7, §8, §9

[8] = system: slender amaranth (Amaranthus viridis); assay: Soil treatment test for upland field (Test Example 2): slender amaranth; details: soil treatment before germination, examined after 3 weeks
From the text: as §4, §6, §7, §8, §9

[9] = system: common purslane (Portulaca oleracea); assay: Soil treatment test for upland field (Test Example 2): common purslane; details: soil treatment before germination, examined after 3 weeks
From the text: as §4, §6, §7, §8, §9

[10] = system: velvetleaf (Abutilon theophrasti); assay: Soil treatment test for upland field (Test Example 2): velvetleaf; details: soil treatment before germination, examined after 3 weeks
From the text: as §4, §6, §7, §8, §9

[11] = system: wheat; assay: Soil treatment test for upland field (Test Example 2): phytotoxicity to wheat; details: soil treatment before germination, examined after 3 weeks
From the text: as §5, §6, §8

[12] = system: corn; assay: Soil treatment test for upland field (Test Example 2): phytotoxicity to corn; details: soil treatment before germination, examined after 3 weeks
From the text: as §5, §6, §8

[13] = system: soybean; assay: Soil treatment test for upland field (Test Example 2): phytotoxicity to soybean; details: soil treatment before germination, examined after 3 weeks
From the text: as §5, §6, §8

[14] = system: southern crabgrass; assay: Foliage treatment test for upland field (Test Example 3): southern crabgrass; details: foliage treatment at 1.0-2.0 leaf stage of southern crabgrass, examined after 3 weeks
From the text: as §4
(§10) Compost mixed soil was filled in 1/3,000 are pots, seeded with southern crabgrass, common lambsquaters, slender amaranth, common purslane, velvetleaf, wheat, corn and soybean. The seeds were covered up with the soil and cultured in a glasshouse kept at 25° C. on the average.
(§11) Wettable powders containing the object compounds (1) as identified in Table 1, which were formulated following Preparation Example 2, were diluted with water to the prescribed dose of the active ingredient, and uniformly sprayed onto the weeds at 1.0-2.0 leaf stage of the southern crabgrass at an application water of 15 liters per are.
(§12) After placing the test pots in a grasshouse kept at 25° C. on the average for 3 weeks, the herbicidal effect was examined.
(§13) Evaluation of the herbicidal effect was conducted in the similar manner to Test Example 1.

[15] = system: common lambsquaters; assay: Foliage treatment test for upland field (Test Example 3): common lambsquaters; details: foliage treatment at 1.0-2.0 leaf stage of southern crabgrass, examined after 3 weeks
From the text: as §4, §10, §11, §12, §13

[16] = system: slender amaranth; assay: Foliage treatment test for upland field (Test Example 3): slender amaranth; details: foliage treatment at 1.0-2.0 leaf stage of southern crabgrass, examined after 3 weeks
From the text: as §4, §10, §11, §12, §13

[17] = system: common purslane; assay: Foliage treatment test for upland field (Test Example 3): common purslane; details: foliage treatment at 1.0-2.0 leaf stage of southern crabgrass, examined after 3 weeks
From the text: as §4, §10, §11, §12, §13

[18] = system: velvetleaf; assay: Foliage treatment test for upland field (Test Example 3): velvetleaf; details: foliage treatment at 1.0-2.0 leaf stage of southern crabgrass, examined after 3 weeks
From the text: as §4, §10, §11, §12, §13

[19] = system: wheat; assay: Foliage treatment test for upland field (Test Example 3): phytotoxicity to wheat; details: foliage treatment at 1.0-2.0 leaf stage of southern crabgrass, examined after 3 weeks
Method: as §5, §10, §12

[20] = system: corn; assay: Foliage treatment test for upland field (Test Example 3): phytotoxicity to corn; details: foliage treatment at 1.0-2.0 leaf stage of southern crabgrass, examined after 3 weeks
Method: as §5, §10, §12

[21] = system: soybean; assay: Foliage treatment test for upland field (Test Example 3): phytotoxicity to soybean; details: foliage treatment at 1.0-2.0 leaf stage of southern crabgrass, examined after 3 weeks
Method: as §5, §10, §12

SMILES: COC/C(=C\c1cccc(C(F)(F)F)c1)c1nc2cc(Cl)ccc2o1 [Compound 3]
- Herbicidal Effect Barnyard grass ([1]; dose 2.5 g ai/a): 5 (100%)
- Herbicidal Effect Barnyard grass ([1]; dose 5 g ai/a): 5 (100%)
- Herbicidal Effect Monochoria vaginalis ([2]; dose 2.5 g ai/a): 5 (100%)
- Herbicidal Effect Monochoria vaginalis ([2]; dose 5 g ai/a): 5 (100%)
- Herbicidal Effect Japanese bulrush ([3]; dose 2.5 g ai/a): 4 (80%-less than 100%)
- Herbicidal Effect Japanese bulrush ([3]; dose 5 g ai/a): 5 (100%)
- Herbicidal Effect Flat sedge ([4]; dose 2.5 g ai/a): 3 (60%-less than 80%)
- Herbicidal Effect Flat sedge ([4]; dose 5 g ai/a): 5 (100%)
- Phytotoxicity Rice plant ([5]; in vivo): 1
- Herbicidal Effect southern crabgrass ([6]; dose 2.5 g ai/a): 5 (100%)
- Herbicidal Effect southern crabgrass ([6]; dose 5 g ai/a): 5 (100%)
- Herbicidal Effect common lambsquaters ([7]; dose 2.5 g ai/a): 5 (100%)
- Herbicidal Effect common lambsquaters ([7]; dose 5 g ai/a): 5 (100%)
- Herbicidal Effect slender amaranth ([8]; dose 2.5 g ai/a): 5 (100%)
- Herbicidal Effect slender amaranth ([8]; dose 5 g ai/a): 5 (100%)
- Herbicidal Effect common purslane ([9]; dose 2.5 g ai/a): 5 (100%)
- Herbicidal Effect common purslane ([9]; dose 5 g ai/a): 5 (100%)
- Herbicidal Effect velvetleaf ([10]; dose 2.5 g ai/a): 3 (60%-less than 80%)
- Herbicidal Effect velvetleaf ([10]; dose 5 g ai/a): 4 (80%-less than 100%)
- Phytotoxicity wheat ([11]; dose 2.5 g ai/a): 0
- Phytotoxicity wheat ([11]; dose 5 g ai/a): 0
- Phytotoxicity corn ([12]; dose 2.5 g ai/a): 0
- Phytotoxicity corn ([12]; dose 5 g ai/a): 1
- Phytotoxicity soybean ([13]; dose 2.5 g ai/a): 0
- Phytotoxicity soybean ([13]; dose 5 g ai/a): 0
- Herbicidal Effect southern crabgrass ([14]; dose 2.5 g ai/a): 5 (100%)
- Herbicidal Effect southern crabgrass ([14]; dose 5 g ai/a): 5 (100%)
- Herbicidal Effect Common lambsquatters ([15]; dose 2.5 g ai/a): 5 (100%)
- Herbicidal Effect Common lambsquatters ([15]; dose 5 g ai/a): 5 (100%)
- Herbicidal Effect slender amaranth ([16]; dose 2.5 g ai/a): 5 (100%)
- Herbicidal Effect slender amaranth ([16]; dose 5 g ai/a): 5 (100%)
- Herbicidal Effect common purslane ([17]; dose 2.5 g ai/a): 5 (100%)
- Herbicidal Effect common purslane ([17]; dose 5 g ai/a): 5 (100%)
- Herbicidal Effect velvetleaf ([18]; dose 2.5 g ai/a): 5 (100%)
- Herbicidal Effect velvetleaf ([18]; dose 5 g ai/a): 5 (100%)
- Phytotoxicity wheat ([19]; dose 2.5 g ai/a): 1
- Phytotoxicity wheat ([19]; dose 5 g ai/a): 1
- Phytotoxicity corn ([20]; dose 2.5 g ai/a): 1
- Phytotoxicity corn ([20]; dose 5 g ai/a): 1
- Phytotoxicity soybean ([21]; dose 2.5 g ai/a): 1
- Phytotoxicity soybean ([21]; dose 5 g ai/a): 2

SMILES: CSCC(=Cc1cccc(C(F)(F)F)c1)c1nc2cc(Cl)ccc2o1 [Compound 30]
- Herbicidal Effect Barnyard grass ([1]; dose 2.5 g ai/a): 4 (80%-less than 100%)
- Herbicidal Effect Barnyard grass ([1]; dose 5 g ai/a): 5 (100%)
- Herbicidal Effect Monochoria vaginalis ([2]; dose 2.5 g ai/a): 5 (100%)
- Herbicidal Effect Monochoria vaginalis ([2]; dose 5 g ai/a): 5 (100%)
- Herbicidal Effect Japanese bulrush ([3]; dose 2.5 g ai/a): 4 (80%-less than 100%)
- Herbicidal Effect Japanese bulrush ([3]; dose 5 g ai/a): 5 (100%)
- Herbicidal Effect Flat sedge ([4]; dose 2.5 g ai/a): 3 (60%-less than 80%)
- Herbicidal Effect Flat sedge ([4]; dose 5 g ai/a): 5 (100%)
- Phytotoxicity Rice plant ([5]; dose 2.5 g ai/a, paddy pots, treated at 1.0 leaf stage of barnyard grass, examined after 3 weeks): 0
- Phytotoxicity Rice plant ([5]; dose 5 g ai/a, paddy pots, treated at 1.0 leaf stage of barnyard grass, examined after 3 weeks): 0
- Herbicidal Effect southern crabgrass ([6]; dose 2.5 g ai/a): 3 (60%-less than 80%)
- Herbicidal Effect southern crabgrass ([6]; dose 5 g ai/a): 5 (100%)
- Herbicidal Effect common lambsquaters ([7]; dose 2.5 g ai/a): 4 (80%-less than 100%)
- Herbicidal Effect common lambsquaters ([7]; dose 5 g ai/a): 4 (80%-less than 100%)
- Herbicidal Effect slender amaranth ([8]; dose 2.5 g ai/a): 5 (100%)
- Herbicidal Effect slender amaranth ([8]; dose 5 g ai/a): 5 (100%)
- Herbicidal Effect common purslane ([9]; dose 2.5 g ai/a): 5 (100%)
- Herbicidal Effect common purslane ([9]; dose 5 g ai/a): 5 (100%)
- Herbicidal Effect velvetleaf ([10]; dose 2.5 g ai/a): 2 (40%-less than 60%)
- Herbicidal Effect velvetleaf ([10]; dose 5 g ai/a): 2 (40%-less than 60%)
- Phytotoxicity wheat ([11]; dose 2.5 g ai/a): 0
- Phytotoxicity wheat ([11]; dose 5 g ai/a): 1
- Phytotoxicity corn ([12]; dose 2.5 g ai/a): 0
- Phytotoxicity corn ([12]; dose 5 g ai/a): 0
- Phytotoxicity soybean ([13]; dose 2.5 g ai/a): 0
- Phytotoxicity soybean ([13]; dose 5 g ai/a): 0
